Assay results published in patent EP0400227A1, “Natriuretic peptides” (Acticor, Inc., priority 1989, dated 1990).
Ends that are not written are not given here.

System: rats
Assay: Natriuretic and diuretic effect of intravenous bolus injection in anesthetized rats
Assay type: in vivo, male Sprague-Dawley or Long-Evans rats
Conditions: 30 to 60 minutes after minus 30 to 0 minutes before injection, mean ± SEM
Procedure: Diuretic and natriuretic activity of the peptides of this invention is assayed in male rats of the Sprague-Dawley or Long-Evans strains. Peptide or vehicle (for control purposes) is administered by intravenous bolus injection or by continuous infusion into one […] of animals anesthetized for the duration of the experiment, or by intramuscular or subcutaneous injection into animals only briefly anesthetized with ether and subsequently conscious and freely moving until completion of the experiment. Timed urine samples are collected for determination of volume and measurement of sodium and potassium concentration by flame photometry. Details of each method are given in Examples II to IV below.
The natriuretic and diuretic effect of intravenous bolus injection of peptides F15R, G13R and E19R was tested in male Sprague-Dawley or Long-Evans rats weighing 300-400 g. The animals were given Inactin®, 120 mg per kg body weight i.p. under light ether anesthesia. Following placement of a tracheal cannula, the right femoral vein was catheterized for infusion of 5% bovine serum albumin at a dose of 0.4% of body weight and at a rate of 6.0 ml/hour. Subsequently, normal saline was infused for the duration of the experiment at a rate of 2.0 ml/hour. The bladder was exposed through an abdominal incision and catheterized for urine collection. Serial 15-minute urine collections in preweighed vials were begun after a recovery period of 45 minutes. After collection of four control samples, the peptide in 0.1 ml of vehicle was injected into the femoral vein over a period of 1 minute and 6 to 10 further urine samples were collected. Urine volume was determined by weighing and urine sodium and potassium were assayed by flame photometry. All peptides produced natriuresis and diuresis reaching peak levels usually between 30 and 60 minutes after injection. The difference between urine volume and sodium excretion observed from 30 to 60 minutes after and 30 to 0 minutes before peptide administration was calculated for each rat as a measure of activity.

[1] = i.v. 0.100 nmol (0.10 nmol for G13R)

Sequence | Change in Sodium Excretion (i.v. 0.025 nmol) [µeq/30 minutes] | Change in Urine Volume (i.v. 0.025 nmol) [µl/30 minutes] | Change in Sodium Excretion [1] [µeq/30 minutes] | Change in Urine Volume [1] [µl/30 minutes] | Change in Sodium Excretion (i.v. 1.00 nmol) [µeq/30 minutes] | Change in Urine Volume (i.v. 1.00 nmol) [µl/30 minutes]
ETPMFPGNGDEQPLTENP [E19R] | 6.50 ± 3.60 | 89.0 ± 43.6 | 12.07 ± 5.08 | 104.2 ± 58.0 |  | 
GNGDEQPLTPNPR [G13R] |  |  | 8.39 ± 4.41 | 80.0 ± 29.2 | 12.48 ± 6.22 | 62.0 ± 17.2
